This note sets out measurements from ChEMBL document CHEMBL4419164, “Methods and compositions for inhibiting cnksr1” (2018).

Structures are written as SMILES. pIC50: −log10 of the molar value. Activity calls are given as the source filed them.

Data set [1] relates to NCI-H2122. Briefly: Growth inhibition of human NCI-H2122 cells relative to control. It is filed as functional, cell-based.
The test system of the next data set is NCI-H1373. Briefly: Growth inhibition of human NCI-H1373 cells relative to control. Format: functional, cell-based.
Data set [2] has as its target Rho guanine nucleotide exchange factor TIAM1 (Homo sapiens) (UniProt Q13009). Briefly: Binding affinity to TIAM1 PH-domain (unknown origin) at 0.01 to 50 uM by SPR spectroscopy.
A short description of data set [3]: Drug metabolism in C57BL6 mouse plasma assessed as Cmax for 2-(4-oxo-3-((4-p-tolylthiazol-2-yl)methyl)-3,4-dihydrophthalazin-1-yl)acetic acid at 250 mg/kg, po dosed via gavage as single administration. It is filed as ADME, organism-based. Further details: dose 250 mg/kg, route oral. The following applies: in vivo.
Data set [4] in a line: Half life in C57BL6 mouse at 250 mg/kg, po dosed via gavage as single administration. It is filed as ADME, organism-based. The following applies: in vivo.
The subject of data set [5] is NCI-H2122. The experiment in a line: Growth inhibition of human NCI-H2122 cells incubated for 3 days. Format: functional, cell-based. To be noted: NCI-H2122, 72 h.
A further data set has as its system HCC515. The experiment in a line: Growth inhibition of human HCC515 cells incubated for 3 days. Format: functional, cell-based. To be noted: HCC515, 72 h.
Data set [6] can be described thus: Half life in beagle dog plasma at 50 ug/ml at 37 degC at pH 7.4. Format: ADME, cell-free, Canis lupus familiaris.
The target of data set [7] is T1, carboxylesterase 1 (liver carboxylesterase 1) (Homo sapiens, UniProt P23141).
T1 sequence (P23141 whole entry): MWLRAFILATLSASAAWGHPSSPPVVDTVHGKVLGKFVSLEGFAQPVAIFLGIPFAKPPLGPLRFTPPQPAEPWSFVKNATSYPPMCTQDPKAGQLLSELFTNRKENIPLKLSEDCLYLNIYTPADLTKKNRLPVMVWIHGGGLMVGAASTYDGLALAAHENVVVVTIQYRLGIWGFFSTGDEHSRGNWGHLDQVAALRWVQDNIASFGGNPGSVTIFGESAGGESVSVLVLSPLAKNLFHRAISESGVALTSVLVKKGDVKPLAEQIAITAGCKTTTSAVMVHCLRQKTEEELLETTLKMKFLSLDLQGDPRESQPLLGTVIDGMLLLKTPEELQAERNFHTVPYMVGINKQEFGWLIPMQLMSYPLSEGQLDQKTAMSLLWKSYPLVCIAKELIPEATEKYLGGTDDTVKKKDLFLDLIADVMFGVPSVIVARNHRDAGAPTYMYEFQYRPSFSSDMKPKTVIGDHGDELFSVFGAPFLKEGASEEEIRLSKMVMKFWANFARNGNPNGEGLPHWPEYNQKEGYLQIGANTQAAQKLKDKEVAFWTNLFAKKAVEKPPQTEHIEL
Briefly: Stability assessed as recombinant human carboxyesterase-1 mediated compound hydrolysis by measuring half life at 50 ug/ml at 37 degC at pH 7.4. Format: ADME. To be noted: recombinant human carboxylesterase-1, pH 7.4.

In data set [8] the target is T2, carboxylesterase 2 (cocaine esterase) (Homo sapiens, UniProt O00748).
T2 sequence (O00748 whole entry): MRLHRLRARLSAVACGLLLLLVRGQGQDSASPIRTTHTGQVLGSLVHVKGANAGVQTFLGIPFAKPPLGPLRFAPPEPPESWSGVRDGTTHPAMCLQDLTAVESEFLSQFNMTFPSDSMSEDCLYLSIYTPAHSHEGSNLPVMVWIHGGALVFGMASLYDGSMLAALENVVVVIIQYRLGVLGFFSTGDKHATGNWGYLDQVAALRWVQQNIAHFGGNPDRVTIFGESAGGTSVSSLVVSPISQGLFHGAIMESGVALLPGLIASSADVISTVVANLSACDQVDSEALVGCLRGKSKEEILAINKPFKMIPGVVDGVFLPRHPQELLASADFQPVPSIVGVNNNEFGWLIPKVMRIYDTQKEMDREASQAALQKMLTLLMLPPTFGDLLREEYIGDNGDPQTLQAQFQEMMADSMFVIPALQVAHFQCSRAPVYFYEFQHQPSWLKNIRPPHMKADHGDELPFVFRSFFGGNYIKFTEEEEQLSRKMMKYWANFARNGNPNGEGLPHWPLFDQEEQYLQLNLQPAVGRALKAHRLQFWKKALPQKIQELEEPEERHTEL
Briefly: Stability assessed as recombinant human carboxyesterase-2 mediated compound hydrolysis by measuring half life at 50 ug/ml at 37 degC at pH 7.4. The following applies: recombinant human carboxylesterase-2, pH 7.4. Format: ADME.

For data set [9], the target named is T3, Connector enhancer of kinase suppressor of ras 1 (Homo sapiens) (UniProt Q969H4).
T3 sequence (whole entry): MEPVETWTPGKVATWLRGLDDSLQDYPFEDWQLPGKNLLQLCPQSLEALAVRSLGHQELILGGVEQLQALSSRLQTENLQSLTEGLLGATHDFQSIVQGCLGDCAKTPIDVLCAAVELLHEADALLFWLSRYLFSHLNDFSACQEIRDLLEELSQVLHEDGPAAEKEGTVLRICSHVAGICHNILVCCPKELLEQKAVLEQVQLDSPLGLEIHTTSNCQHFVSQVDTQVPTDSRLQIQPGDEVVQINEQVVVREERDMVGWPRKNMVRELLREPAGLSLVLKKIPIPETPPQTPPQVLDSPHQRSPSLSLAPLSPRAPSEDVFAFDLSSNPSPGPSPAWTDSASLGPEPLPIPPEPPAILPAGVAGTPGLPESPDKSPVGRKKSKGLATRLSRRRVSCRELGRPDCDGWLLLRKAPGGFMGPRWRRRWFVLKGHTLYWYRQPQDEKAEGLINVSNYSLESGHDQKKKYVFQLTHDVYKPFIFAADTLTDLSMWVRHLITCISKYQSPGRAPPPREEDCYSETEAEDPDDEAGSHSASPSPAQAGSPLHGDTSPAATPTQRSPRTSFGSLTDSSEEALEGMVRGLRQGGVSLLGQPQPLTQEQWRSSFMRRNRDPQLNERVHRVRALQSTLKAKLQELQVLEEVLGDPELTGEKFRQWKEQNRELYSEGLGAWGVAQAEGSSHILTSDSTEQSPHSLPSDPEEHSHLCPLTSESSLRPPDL
Briefly: Inhibition of GFP-tagged CNKSR1 (unknown origin) expressed in HEK293T cells assessed as inhibition of direct binding of CNKSR1 to mut-KRAS at 50 uM incubated for 4 hrs by fluorescence lifetime imaging microscopy. It is filed as cell-based.

Data set [10] addresses T3, Connector enhancer of kinase suppressor of ras 1 (Homo sapiens). The experiment in a line: Inhibition of CNKSR1 (unknown origin) assessed as reduction in inhibition of KRas signaling effectors by measuring GTP-RalA levels at 20 uM by cell based assay.

Chain of Rho guanine nucleotide exchange factor TIAM1 (Homo sapiens) (Q13009 whole entry): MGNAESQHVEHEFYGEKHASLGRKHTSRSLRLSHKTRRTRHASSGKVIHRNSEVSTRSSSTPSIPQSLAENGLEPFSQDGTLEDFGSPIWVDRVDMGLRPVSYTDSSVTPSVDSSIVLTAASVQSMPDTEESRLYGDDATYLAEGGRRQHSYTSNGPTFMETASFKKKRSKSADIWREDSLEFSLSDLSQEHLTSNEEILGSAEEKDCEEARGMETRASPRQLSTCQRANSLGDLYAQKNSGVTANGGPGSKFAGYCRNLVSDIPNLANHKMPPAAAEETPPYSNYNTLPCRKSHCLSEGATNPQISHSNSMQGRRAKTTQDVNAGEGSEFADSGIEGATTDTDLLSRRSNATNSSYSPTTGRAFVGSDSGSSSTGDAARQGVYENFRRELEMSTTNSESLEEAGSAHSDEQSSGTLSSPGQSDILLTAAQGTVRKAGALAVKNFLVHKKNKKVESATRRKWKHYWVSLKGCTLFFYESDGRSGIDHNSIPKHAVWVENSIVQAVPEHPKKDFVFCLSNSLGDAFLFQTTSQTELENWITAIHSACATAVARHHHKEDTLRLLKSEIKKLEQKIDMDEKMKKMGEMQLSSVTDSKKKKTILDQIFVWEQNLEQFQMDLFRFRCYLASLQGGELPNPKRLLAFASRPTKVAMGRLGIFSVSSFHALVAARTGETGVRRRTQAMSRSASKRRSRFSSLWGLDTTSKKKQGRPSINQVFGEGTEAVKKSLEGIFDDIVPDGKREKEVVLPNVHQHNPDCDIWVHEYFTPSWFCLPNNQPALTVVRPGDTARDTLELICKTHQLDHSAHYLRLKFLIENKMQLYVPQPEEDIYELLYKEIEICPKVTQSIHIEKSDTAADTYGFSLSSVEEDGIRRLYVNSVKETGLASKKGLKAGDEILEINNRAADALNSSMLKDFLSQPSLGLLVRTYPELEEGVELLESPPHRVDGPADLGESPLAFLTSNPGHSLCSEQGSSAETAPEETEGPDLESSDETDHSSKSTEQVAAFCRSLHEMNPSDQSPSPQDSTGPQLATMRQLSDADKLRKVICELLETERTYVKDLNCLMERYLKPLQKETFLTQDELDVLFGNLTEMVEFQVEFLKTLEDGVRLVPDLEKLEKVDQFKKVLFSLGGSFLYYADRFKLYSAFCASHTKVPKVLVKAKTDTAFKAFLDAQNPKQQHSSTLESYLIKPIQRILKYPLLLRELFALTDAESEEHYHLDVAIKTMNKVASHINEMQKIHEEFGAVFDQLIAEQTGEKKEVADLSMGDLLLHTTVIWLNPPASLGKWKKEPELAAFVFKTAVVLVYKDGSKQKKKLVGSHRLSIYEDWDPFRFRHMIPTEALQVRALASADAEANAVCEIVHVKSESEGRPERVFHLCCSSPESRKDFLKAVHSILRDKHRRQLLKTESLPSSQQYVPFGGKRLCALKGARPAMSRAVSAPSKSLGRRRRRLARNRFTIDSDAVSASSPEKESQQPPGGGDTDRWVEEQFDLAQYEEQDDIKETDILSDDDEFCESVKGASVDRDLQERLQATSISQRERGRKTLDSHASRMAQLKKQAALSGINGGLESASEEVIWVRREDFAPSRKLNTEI

A word on the Cmax: it is the maximum level reached in the sampled fluid or tissue. In general, half-life refers to the time needed for the level to fall by half in the phase considered. For orientation: pIC50 means the negative decadic logarithm of the IC50, by convention in mol/L. As for `CCOC(=O)Cc1nn(Cc2nc(-c3ccc(C)cc3)cs2)c(=O)c2ccccc12`, the “growth inhibition (GI)” value in the data set with NCI-H2122 [1] and in the data set with NCI-H1373 was “Active” in each case. Besides, the outcome in [2] was inactive. Moreover, the maximum concentration (Cmax) in data set [3] came to 128 µM. Besides, the half-life in [4] is 6 h. Further, the pIC50 in the data set on NCI-H2122 [5] was 4.57; in the data set with HCC515, 4.15. Further, the half-life at 50 ug/ml in data set [6] was 9.3 h; in data set [7], 0.317 h; in [8], 1.65 h. The inhibition result in data set [9] and in [10] was “Active” throughout.
